Results: patent US6197335A, “Solid pharmaceutical compositions comprising a cyclosporin and an anionic surfactant” (Sherman; Bernard Charles, priority 1997, dated 2001)

Test: critical micelle concentration of the surfactant in water
Format: physicochemical
Excerpt: The ability of anionic surfactants to solubilize cyclosporins in water substantially increases when the concentration of the surfactant in water substantially exceeds the critical micelle concentration. Using sodium lauryl sulfate, for example, the critical micelle concentration is about 0.1% by weight.

With `CCCCCCCCCCCCOS(=O)(=O)[O-].[Na+]` [sodium lauryl sulfate] the critical micelle concentration was “about 0.1 % by weight”.
